Assay [1] deals with subjects with type 1 diabetes. Description: Single-dose crossover study of pramlintide injection timing relative to a standardized breakfast, type 1 diabetes (Example 2). It counts as in vivo, human. As to conditions: pramlintide 60 μg SC, -15 to +30 min relative to meal. The source says:
(§1) In this example, a randomized, single-blind, placebo-controlled, five-way crossover study is designed to examine the effect of the timing of pramlintide injection relative to meal ingestion on postprandial plasma glucose profiles and triglycerides in subjects with type 1 diabetes and subjects with type 2 diabetes using insulin. Three study groups are defined by diabetes type and mealtime insulin used in their treatment regimen. On 5 study days, subjects receive a single dose of one of five treatments (A, B, C, D, or E) in random order:
(§2) Each treatment (pramlintide or placebo) is administered subcutaneously (SC) within specified times relative to a standardized breakfast after an overnight fast. Subjects are randomly assigned to one of four treatment sequences according to a randomization schedule generated for each study group.
Subjects with type 1 diabetes received pramlintide 60 μg or placebo (equivalent volume). Subjects with type 2 diabetes using insulin receive pramlintide 120 μg or placebo (equivalent volume). Subjects maintain their usual insulin regimen during the study; if necessary, insulin dose adjustments are made in consultation with study personnel to facilitate achievement of fasting fingerstick glucose values in the range of ≧80 mg/dL and ≦250 mg/dL while avoiding hypoglycemia. The timing of the short-acting insulin dose relative to the standardized breakfast is based on recommendations in the respective package inserts for the insulin (0 min for insulin lispro and −30 min for regular insulin).
The study population consists of three study groups, defined by diabetes type and type of mealtime insulin used in their treatment regimen. Study Group 1: Subjects with type 1 diabetes using insulin lispro. Study Group 2: Subjects with type 1 diabetes using regular insulin. Study Group 3: Subjects with type 2 diabetes using insulin lispro. Fifty-nine subjects (21 type 1 subjects using insulin lispro; 19 type 1 subjects using regular insulin; and 19 type 2 subjects using insulin lispro) are enrolled in this study.

Assay [2] deals with patients with type-1 diabetes. As to conditions: mealtime s.c. injections in addition to mealtime insulin, cited from earlier work.
The test system of assay [3] is subjects with type 2 diabetes using insulin. Description: Single-dose crossover study of pramlintide injection timing relative to a standardized breakfast, type 2 diabetes using insulin (Example 2). It counts as in vivo, human. As to conditions: type 2 patients treated with lispro insulin, pramlintide 120 μg SC, -15 to +30 min relative to meal.
Text: as §1, §2
Subjects with type 1 diabetes received pramlintide 60 μg or placebo (equivalent volume). Subjects with type 2 diabetes using insulin receive pramlintide 120 μg or placebo (equivalent volume). Subjects maintain their usual insulin regimen during the study; if necessary, insulin dose adjustments are made in consultation with study personnel to facilitate achievement of fasting fingerstick glucose values in the range of ≧80 mg/dL and ≦250 mg/dL while avoiding hypoglycemia. […]

Assay [4] deals with patients with type-1 diabetes. Description: Standardized mixed meal test after 4 weeks pramlintide TID added to CSII (Example 1). Type of assay: in vivo, human. An excerpt:
This Study Assesses the Effect of the Amylin Agonist Pramlintide on Post-Prandial Plasma Glucose and Triglyceride Excursions in Patients with Type-1 Diabetes Intensively Treated with Continuous Subcutaneous Insulin Infusion (CSII).
All 23 patients in this study are ≧16 years of age, have type-I diabetes for ≧1 year and have been intensively treated (CSII, basal/bolus regimen) for at least 6 months. Patients are using either lispro (n=21) or regular (n=2) insulin, have not changed their daily insulin dose by more than ±10% for 2 months prior to the study, and have been free from severe hypo- and hyperglycemic symptoms for at least 4 weeks prior to the study. Exclusion criteria include a clinically significant history or presence of heart disease, uncontrolled hypertension (blood pressure ≧160/90 mm Hg), gastrointestinal, hepatic, renal, or central nervous system disorders, acute illness, a history of drug or alcohol abuse, or treatment with drugs known to affect gastrointestinal motility or glucose metabolism.
The study consists of 3 time periods (baseline, 4 weeks on-therapy, 2 weeks off-therapy). At the end of each time period (weeks 0, 4, 6), patients are evaluated at the clinical research center (CRC). Each evaluation includes a standardized meal test.
The first evaluation (baseline) is conducted when patients are solely treated with their usual CSII regimen. After the baseline evaluation, patients are randomized to self-administer either placebo (n=6) or pramlintide (n=17) TID with major meals, in addition to their existing CSII therapy, for 4 weeks. The placebo group is included to provide data that could be used to determine adequate power analyses when planning future studies and not for the purpose of placebo comparisons. […]
On each of the 3 CRC visits, patients undergo a standardized mixed meal test the morning after an overnight fast. […] Blood samples are processed in accordance with standard clinical practice using a reference lab and commercially available products (e.g., quantitative enzymatic in vitro assay for Triglycerides GPO-PAP, Roche Diagnostics). […]

Each structure is given as a SMILES string.

As to `CC[C@H](C)[C@H](NC(=O)[C@@H]1CCCN1C(=O)CNC(=O)[C@H](Cc1ccccc1)NC(=O)[C@H](CC(N)=O)NC(=O)[C@H](CC(N)=O)NC(=O)[C@H](CO)NC(=O)[C@H](CO)NC(=O)[C@H](Cc1c[nH]cn1)NC(=O)[C@@H](NC(=O)[C@H](CC(C)C)NC(=O)[C@H](Cc1ccccc1)NC(=O)[C@H](CC(N)=O)NC(=O)[C@H](C)NC(=O)[C@H](CC(C)C)NC(=O)[C@H](CCCNC(=N)N)NC(=O)[C@H](CCC(N)=O)NC(=O)[C@@H](NC(=O)[C@H](C)NC(=O)[C@@H]1CSSC[C@H](NC(=O)[C@@H](N)CCCCN)C(=O)N[C@@H](CC(N)=O)C(=O)N[C@@H]([C@@H](C)O)C(=O)N[C@@H](C)C(=O)N[C@@H]([C@@H](C)O)C(=O)N1)[C@@H](C)O)C(C)C)C(=O)N[C@@H](CC(C)C)C(=O)N1CCC[C@H]1C(=O)N1CCC[C@H]1C(=O)N[C@H](C(=O)N[C@@H](CC(N)=O)C(=O)N[C@H](C(=O)NCC(=O)N[C@@H](CO)C(=O)N[C@@H](CC(N)=O)C(=O)N[C@H](C(=O)N[C@@H](Cc1ccc(O)cc1)C(N)=O)[C@@H](C)O)C(C)C)[C@@H](C)O` [pramlintide, ^25, 28, 29Pro-h-amylin], the postprandial glucose excursions entry in assay [1] (type 1 patients treated with lispro insulin), in assay [1] (type 1 patients treated with regular insulin) and in assay [3] was “markedly improves” throughout. Further, the postprandial triglyceride concentrations result is listed as “markedly improves” in assay [1] (type 1 patients treated with lispro insulin, FIG. 2); “markedly improves” in assay [1] (type 1 patients treated with regular insulin, FIG. 3); “markedly improves” in assay [3] (FIG. 4). For the same molecule, in assay [2] (Kong et al. 1998), the “rate of gastric emptying” value is “slows”. Besides, the mealtime glucagon secretion result in assay [2] (Nyholm et al. 1999, Fineman et al. 2002) is given as “suppresses”. In addition, the post-prandial glucose excursions entry in assay [2] (Nyholm et al. 1999, Thompson et al. 1997) is recorded as “improves”. Also, the “post-prandial triglyceride excursions, mean incremental AUC” value in assay [4] (end of 4-week pramlintide treatment period, s.c. 15 min prior to meal, plus CSII, baseline period 65.7±87.6, p<0.05) is 16.7 ± 56.8 mg·min/dL; in assay [4] (week 6, 2 weeks after return to pre-treatment therapy (CSII only), off-therapy) it was 56.2 ± 87.3 mg·min/dL. Further, the “post-prandial glucose response to a mixed meal” value in assay [4] (pramlintide added to insulin, type-1 diabetic patients) is “reduces”.

The values are drawn from US20030130177A1, “Use of amylin agonists to modulate triglycerides” (priority 2002, published 2003).
